Measured values taken from article doi:10.64898/2025.12.09.693205v1 (biorxiv, 2025).

Target: T1, UBE2N (Homo sapiens, UniProt P61088)
T1 sequence (P61088 1-152): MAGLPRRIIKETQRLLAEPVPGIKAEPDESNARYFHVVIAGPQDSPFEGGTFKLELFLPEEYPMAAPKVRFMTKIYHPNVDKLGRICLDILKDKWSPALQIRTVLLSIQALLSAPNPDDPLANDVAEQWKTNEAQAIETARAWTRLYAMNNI
Assay: microscale thermophoresis
Format: binding
Details: PBS pH 7.4, 0.05% Tween20; labelled protein; MST-on time 9-10 s; n = 3

Kd: 35.3 ± 6.3 µM
SMILES: COC(=O)c1cc2c(cn1)[nH]c1ccc(O)cc12 [Variabine B]
